According to patent US20250368647A1, “NITROGEN CONTAINING CONDENSED 2,3-DIHYDROQUINAZOLINONE COMPOUNDS AS NAV1.8 INHIBITORS” (GLAXOSMITHKLINE INTELLECTUAL PROPERTY DEVELOPMENT LIMITED, priority 2022, published 2025):
Counter-ions that a name gives are not always drawn.

biological target: human Nav1.8 (Homo sapiens (Human), UniProt Q9Y5Y9); assay: QPatch 48 HTX voltage-clamp electrophysiology, half inactivation state (V1/2) protocol, HEK293-Nav1.8 cells; format: cell-based; conditions: HEK293 cells expressing human Nav1.8, human Navβ1 and human TREK1, P2 current
Sequence (Q9Y5Y9 whole entry): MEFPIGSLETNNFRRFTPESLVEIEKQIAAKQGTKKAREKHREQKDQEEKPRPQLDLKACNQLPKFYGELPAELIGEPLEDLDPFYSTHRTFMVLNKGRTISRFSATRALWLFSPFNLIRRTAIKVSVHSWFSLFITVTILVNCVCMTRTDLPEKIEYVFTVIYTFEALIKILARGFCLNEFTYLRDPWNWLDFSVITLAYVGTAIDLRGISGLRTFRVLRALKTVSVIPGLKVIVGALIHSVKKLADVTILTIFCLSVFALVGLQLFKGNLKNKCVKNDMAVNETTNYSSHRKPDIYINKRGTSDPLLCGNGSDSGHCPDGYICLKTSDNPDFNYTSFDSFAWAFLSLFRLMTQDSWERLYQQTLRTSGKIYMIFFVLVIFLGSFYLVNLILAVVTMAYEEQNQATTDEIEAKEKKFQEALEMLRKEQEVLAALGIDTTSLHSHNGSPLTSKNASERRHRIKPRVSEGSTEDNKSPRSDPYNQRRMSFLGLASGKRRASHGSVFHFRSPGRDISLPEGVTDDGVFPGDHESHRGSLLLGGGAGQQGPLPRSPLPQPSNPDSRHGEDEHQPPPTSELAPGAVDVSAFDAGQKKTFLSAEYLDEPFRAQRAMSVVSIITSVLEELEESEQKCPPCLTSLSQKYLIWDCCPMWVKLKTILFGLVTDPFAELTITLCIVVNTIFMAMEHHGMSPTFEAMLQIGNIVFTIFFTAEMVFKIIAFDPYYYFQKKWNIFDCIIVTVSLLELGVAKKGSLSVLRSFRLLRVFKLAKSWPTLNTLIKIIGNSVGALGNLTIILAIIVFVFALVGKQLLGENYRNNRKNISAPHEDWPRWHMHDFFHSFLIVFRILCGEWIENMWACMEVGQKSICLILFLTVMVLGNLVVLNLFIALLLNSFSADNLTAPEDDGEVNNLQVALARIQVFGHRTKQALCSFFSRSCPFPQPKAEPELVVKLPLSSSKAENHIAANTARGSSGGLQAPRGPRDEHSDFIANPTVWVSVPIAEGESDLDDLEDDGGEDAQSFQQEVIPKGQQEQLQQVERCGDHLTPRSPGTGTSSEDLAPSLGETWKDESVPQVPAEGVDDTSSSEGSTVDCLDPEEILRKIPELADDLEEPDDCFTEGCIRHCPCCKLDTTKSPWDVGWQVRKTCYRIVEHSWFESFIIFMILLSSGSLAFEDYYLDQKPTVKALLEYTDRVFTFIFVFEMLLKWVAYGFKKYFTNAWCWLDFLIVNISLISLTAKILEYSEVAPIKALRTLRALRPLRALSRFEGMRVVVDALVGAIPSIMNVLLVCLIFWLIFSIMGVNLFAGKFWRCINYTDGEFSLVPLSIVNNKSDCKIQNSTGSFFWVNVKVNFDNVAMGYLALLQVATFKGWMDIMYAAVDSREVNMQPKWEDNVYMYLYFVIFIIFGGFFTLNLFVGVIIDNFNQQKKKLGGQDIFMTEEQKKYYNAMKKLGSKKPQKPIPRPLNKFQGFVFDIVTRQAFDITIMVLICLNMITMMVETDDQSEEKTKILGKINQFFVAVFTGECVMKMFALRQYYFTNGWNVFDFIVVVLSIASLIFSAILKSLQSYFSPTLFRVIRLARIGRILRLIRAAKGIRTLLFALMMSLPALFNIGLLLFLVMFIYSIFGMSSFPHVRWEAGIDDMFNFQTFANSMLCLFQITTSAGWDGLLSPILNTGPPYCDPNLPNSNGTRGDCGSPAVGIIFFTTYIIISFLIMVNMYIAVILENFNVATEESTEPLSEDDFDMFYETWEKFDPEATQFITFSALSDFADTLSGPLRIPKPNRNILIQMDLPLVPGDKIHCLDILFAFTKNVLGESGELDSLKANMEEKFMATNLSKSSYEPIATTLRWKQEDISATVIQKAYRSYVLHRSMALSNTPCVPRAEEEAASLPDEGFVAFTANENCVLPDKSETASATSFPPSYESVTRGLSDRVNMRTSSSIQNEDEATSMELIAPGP
Sequence (Q07699 19-218 partner): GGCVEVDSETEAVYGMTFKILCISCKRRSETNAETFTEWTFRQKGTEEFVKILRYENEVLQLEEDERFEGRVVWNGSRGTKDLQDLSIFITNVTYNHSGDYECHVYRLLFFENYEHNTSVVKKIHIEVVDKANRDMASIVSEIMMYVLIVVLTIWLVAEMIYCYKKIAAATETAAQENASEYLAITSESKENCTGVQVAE
Method: Human embryonic kidney 293 cells (HEK293) expressing human Nav1.8, human Navβ1 and human TREK1 (HEK293-Nav1.8) were grown in T150 cell culture flasks at 37° C., 5% CO2 incubator. HEK293-Nav1.8 were passaged every 2-3 days when confluency reached 80-90% in T150 cell culture flasks.
Pharmacological assessment of compounds of the invention was performed using the QPatch 48 HTX electrophysiological platform. HEK293-Nav1.8 cells were prepared on the day of use by removing culture media, washing in DPBS, adding Accutase (2 mL to cover the surface, aspirate 1 mL then 1-2 minutes at 37° C.) followed by addition of CHO-SFM II to stop the enzyme digestion and in order to obtain a suspension of 3×10^6 cell/mL.
Compounds of the invention were prepared in an extracellular solution of the following composition: NaCl (145 mM), KCl (4 mM), CaCl2) (2 mM), MgCl (2 mM), HEPES (1 mM), Glucose (10 mM), pH 7.4 with NaOH Osmolality 300 mOsM/L. An intracellular solution of the following composition was used: CsF (115 mM), CsCl (20 mM), NaCl (5 mM), EGTA (10 mM), HEPES (10 mM), Sucrose (20 mM), pH 7.2 with CsOH Osmolality 310 mOsm/L.
Utilizing the voltage-clamp mode in the QPatch 48 HTX system a half inactivation state voltage protocol (V1/2) was used to determine pharmacological activity of compounds of the invention at Nav1.8 ion channels. A V1/2 protocol was utilized with the following voltage steps: a holding voltage of −100 mV was established followed by a 20 ms voltage step to 0 mV (P1), followed by an inactivating voltage step at −46 mV for 8 seconds, followed by a step to −100 mV for 20 ms, before a 20 ms step to 0 mV (P2), then returned to the holding voltage of −100 mV. This voltage protocol was repeated at a frequency of every 15 seconds, the current magnitude was quantified at the P2 step throughout the recording. Inhibition of the measured current amplitude with compounds of the invention was analyzed by fitting a 4-6 points dose-response curve allowing determination of the fifty percent inhibition concentration (IC50). P2 currents were normalized according to measurements made at baseline (Baseline, vehicle only), after compound (Input, at each test concentration), and after positive reference compound (FullResponse, to achieve complete block), fit to the following equation: […]
To assess current run-down over the course of the experiment vehicle-only wells were utilized and the normalized current with vehicle-only (n.IVEH) was determined. To correct the compound response for run-down, the currents were corrected according to the following formula: […]
Compound inhibition was fitted to the following Hill Equation to estimate the half maximal inhibition concentration (IC50)
[formula] • where Y is the normalized run-down corrected inhibition relative to the vehicle control (equivalent to n.IRD_Correct), C the test compound concentration, IC50 the concentration of test compound to inhibit the sodium current by 50%, and h the Hill coefficient.

Nav1.8, pIC50 | SMILES
8.3 | O=C1c2cc(C(F)(F)F)ccc2N2CN1c1cc[n+]([O-])cc1CCCCCc1cc(F)ccc12 [Example 26, 3^4-Fluoro-2^4-oxo-2^6-(trifluoromethyl)-2^1,2^2,2^3,2^4-tetrahydro-2(3,1)-quinazolina-1(4,3)-pyridin-1-iuma-3(1,2)-benzenacyclooctaphan-1-oxide]
6.7 | Cl.O=C1c2cc(C(F)(F)F)ccc2N2CN1c1ccc(=O)[nH]c1CCNCc1ccccc12 [Example 78, 2-(Trifluoromethyl)-10,11,12,13-tetrahydro-19H-5,18-methanodibenzo[c,f]pyrido[3,2-j][1,5,9]triazacyclotridecine-15,19(14H)-dione hydrochloride]
6.4 | O=C1c2cc(C(F)(F)F)ccc2N2CN1c1ccc(=O)[nH]c1CNCCc1cc(F)ccc12 [Example 103, 8-Fluoro-2-(trifluoromethyl)-10,11,12,13-tetrahydro-19H-5,18-methanodibenzo[b,l]pyrido[3,2-f][1,5,9]triazacyclotridecine-15,19(14H)-dione]
7.3 | CC1NCCc2[nH]c(=O)ccc2N2CN(c3cc(C(F)(F)F)c(F)cc3C2=O)c2ccc(F)cc21 (racemic) [Example 117, 2,8-Difluoro-10-methyl-3-(trifluoromethyl)-10,11,12,13-tetrahydro-19H-5,18-methanodibenzo-[c,f]pyrido[3,2-j][1,5,9]triazacyclotridecine-15,19(14H)-dione hydrochloride]
7.6 | O=C1c2cc(F)c(F)cc2N2CN1c1ccc(=O)[nH]c1NCCCc1c2ccc(F)c1F [Example 98, 2,3,8,9-Tetrafluoro-10,11,12,13-tetrahydro-19H-5,18-methanodibenzo[f,i]pyrido[2,3-b]-[1,4,8]triazacyclotridecine-15,19(14H)-dione, formic acid salt]
6.5 | O=C1c2ccc(C(F)(F)F)cc2N2CN1c1ccc(=O)[nH]c1CCCCOc1cc(F)ccc12 [Example 18, 3^4-Fluoro-2^7-(trifluoromethyl)-1^1,1^2,2^1,2^2,2^3,2^4-hexahydro-4-oxa-2(3,1)-quinazolina-1(5,6)-pyridina-3(1,2)-benzenacyclooctaphane-1^2,2^4-dione]
8.1 | Cl.O=C1c2cc(F)c(C(F)(F)F)cc2N2CN1c1ccc(=O)[nH]c1CNCCCc1c2ccc(F)c1F [Example 106, 2^6,3^3,3^4-Trifluoro-2^7-(trifluoromethyl)-1^1,1^2,2^1,2^2,2^3,2^4-hexahydro-7-aza-2(3,1)-quinazolina-1(5,6)-pyridina-3(1,2)-benzenacyclooctaphane-1^2,2^4-dione hydrochloride]
7.6 | Cc1c(F)ccc2c1CNCCc1[nH]c(=O)ccc1N1CN2c2cc(C#N)c(F)cc2C1=O.Cl [Example 71, 2,8-Difluoro-9-methyl-15,19-dioxo-10,11,12,13,14,15-hexahydro-19H-518-methanodibenzo-[c,f]pyrido[3,2-j][1,5,9]triazacyclotridecine-3-carbonitrile hydrochloride]
7.9 | O=C1c2cc(F)c(F)cc2N2CN1c1ccc(=O)[nH]c1NCCCc1cc(F)ccc12 [Example 91, 2,3,8-Trifluoro-10,11,12,13-tetrahydro-19H-5,18-methanodibenzo[f,i]pyrido[2,3-b]-[1,4,8]triazacyclotridecine-15,19(14H)-dione]
7.6 | O=C1c2c(ccc(C(F)(F)F)c2F)N2CN1c1ccc(=O)[nH]c1NCCCc1c2ccc(F)c1F [Example 97, 1,8,9-Trifluoro-2-(trifluoromethyl)-10,11,12,13-tetrahydro-19H-5,18-methanodibenzo[f,i]pyrido-[2,3-b][1,4,8]triazacyclotridecine-15,19(14H)-dione]
8 | O=C1c2cc(F)c(Cl)cc2N2CN1c1ccc(=O)[nH]c1CCNCc1c2ccc(F)c1F [Example 50, 3-Chloro-2,8,9-trifluoro-10,11,12,13-tetrahydro-19H-5,18-methanodibenzo-[c,f]pyrido[3,2-j][1,5,9]triazacyclotridecine-15,19(14H)-dione]
7.5 | O=C1c2ccc(C(F)(F)F)cc2N2CN1c1ccc(=O)[nH]c1NCCCc1cc(F)ccc12 [Example 28, 8-Fluoro-3-(trifluoromethyl)-10,11,12,13-tetrahydro-19H-5,18-methanodibenzo[f,i]pyrido[2,3-b][1,4,8]triazocyclotridecine-15,19(14H)-dione]
7.4 | N#Cc1cc2c(cc1F)C(=O)N1CN2c2ccc(F)c(F)c2CNCCc2[nH]c(=O)ccc21 [Example 57, 2,8,9-Trifluoro-15,19-dioxo-10,11,12,13,14,15-hexahydro-19H-5,18-methano-dibenzo[c,f]pyrido[3,2-j][1,5,9]triazacyclotridecine-3-carbonitrile]
8.3 | Cl.[2H]C1([2H])N2C(=O)c3cc(F)c(F)cc3N1c1ccc(F)c(Cl)c1CNCCc1[nH]c(=O)ccc12 [Example 65, 9-Chloro-2,3,8-trifluoro-10,11,12,13-tetrahydro-19H-5,18-methanodibenzo[c,f]pyrido[3,2-j][1,5,9]triazacyclotridecine-15,19(14H)-dione-20,20-d2 hydrochloride]
7.9 | Cl.O=C1c2cc(F)c(F)cc2N2CN1c1ccc(=O)[nH]c1CCNCc1c2ccc(OC(F)(F)F)c1F [Example 87, 2,3,9-Trifluoro-8-(trifluoromethoxy)-10,11,12,13-tetrahydro-19H-5,18-methanodibenzo[c,f]pyrido[3,2-j][1,5,9]triazacyclotridecine-15,19(14H)-dione hydrochloride]
8.2 | Cl.O=C1c2cc(F)c(C(F)(F)F)cc2N2CN1c1ccc(=O)[nH]c1CCNCc1cc(Cl)ccc12 [Example 66, 8-Chloro-2-fluoro-3-(trifluoromethyl)-10,11,12,13-tetrahydro-19H-5,18-methanodibenzo[c,f]pyrido[3,2-j][1,5,9]triazacyclotridecine-15,19(14H)-dione hydrochloride]
6.1 | COc1c(F)ccc2c1CNCCc1[nH]c(=O)ccc1N1CN2c2cc(C#N)c(F)cc2C1=O.Cl [Example 73, 2,8-Difluoro-9-methoxy-15,19-dioxo-10,11,12,13,14,15-hexahydro-19H-5,18-methanodibenzo-[c,f]pyrido[3,2-j][1,5,9]triazacyclotridecine-3-carbonitrile hydrochloride]
8.5 | Cl.O=C1c2cc(F)c(C(F)(F)F)cc2N2CN1c1ccc(=O)[nH]c1CCNCc1c(Cl)cccc12 [Example 81, 9-Chloro-2-fluoro-3-(trifluoromethyl)-10,11,12,13-tetrahydro-19H-5,18-methanodibenzo-[c,f]pyrido[3,2-j][1,5,9]triazacyclotridecine-15,19(14H)-dione hydrochloride]
6.1 | O=C1c2cc(C(F)(F)F)cnc2N2CN1c1ccc(=O)[nH]c1CCCCc1cc(OC(F)(F)F)ccc12 [Example 17, 8-(Trifluoromethoxy)-2-(trifluoromethyl)-10,11,12,13-tetahydro-19H,19H-5,18-methano-dibenzo[l]pyrido[2,3-b:3′,2′-f][1,5]diazacyclotridecine-15,19(14H)-dione]
8.2 | Cl.O=C1c2cc(F)c(Cl)cc2N2CN1c1ccc(=O)[nH]c1CCNCc1c2ccc(F)c1F [Example 49, 3-Chloro-2,8,9-trifluoro-10,11,12,13-tetrahydro-19H-5,18-methanodibenzo[c,f]pyrido[3,2-j][1,5,9]triazacyclotridecine-15,19(14H)-dione hydrochloride]

same assay, conditions: HEK293 cells expressing human Nav1.8, human Navβ1 and human TREK1, P2 current, read-out: Nav1.8, pIC50 (converted)

IC50 [nM] | SMILES
3.98 | Cc1c(F)ccc2c1CNCCc1[nH]c(=O)ccc1N1CN2c2cc(C(F)(F)F)c(F)cc2C1=O [Example 61, 2,8-Difluoro-9-methyl-3-(trifluoromethyl)-10,11,12,13-tetrahydro-19H-5,18-methanodibenzo[c,f]pyrido[3,2-j][1,5,9]triazacyclotridecine-15,19(14H)-dione hydrochloride]
